Reference: patent EP4473972A1, “COMBINATIONS COMPRISING AN ATR INHIBITOR WITH SYNERGISTIC EFFECT AGAINST GLIOMAS” (Eberhard-Karls-Universität Tübingen, priority 2023, dated 2024)

Columns and labels:
[1] = system: SMA560 glioma cells; assay: Syngeneic glioma mouse model (survival); format: in vivo, VM/Dk mice; details: 50 mg/kg bodyweight via oral gavage, five days on, two days treatment holiday; survival = time until the onset of neurological symptoms; vehicle control 14 days
Excerpt: All animal experiments were approved by the regional council Tübingen and conducted in accordance with animal law. Animals used in this study are kept and bred in the animal facility of the institute. They are regularly analyzed for infectious diseases. The inventors injected 5000 SMA560 glioma cells into the right striatum of VM/Dk mice (male and female). On day 5 post surgery, they randomized mice into treatment and control arm. The inventors administered AZD6738 (celasertib, Selleckchem, Houston, TX, US) at 50 mg/kg bodyweight or vehicle control via oral gavage for five days followed by two days of treatment holiday. Animals were closely monitored as shown in the scoring sheets. The endpoint of the experiment was according to the animal law "the time until the onset of neurological symptoms", in the text designated as "survival".

[2] = system: LN229 cells; assay: Clonogenic survival assay; format: cell-based, human; details: treated 24 h in serum-free medium
Description: (§1) Cells were seeded the day before treatment. The inventors treated the cells in the indicated concentrations in serum-free medium for 24 h after which they changed the medium back to medium containing FCS, followed by a 7 to 21 day incubation time. The inventors used crystal violet (0.5% w/v) to stain colonies and analyzed the area coverage using the ImageJ software Plugln ColonyArea. Measurements were normalized to respective vehicle control wells.

[3] = system: LNZ308 cells; assay: Clonogenic survival assay; format: cell-based, human; details: treated 24 h in serum-free medium
Description: as §1

C[C@@H]1COCCN1c1cc(C2([S@](C)(=N)=O)CC2)nc(-c2cc[nH]c3nccc2-3)n1 [AZD6738, ceralasertib]
median survival [1]: 21 days | clonogenic survival [2]: dose-dependent reduction | clonogenic survival [3]: dose-dependent reduction
